Assay: photoluminescence quantum yield (fraction); solvent given as SMILES

## CN(C)c1ccc(/C=C/C=C/c2ccc([N+](=O)[O-])c(O)c2)cc1
In C1CCCCC1
  photoluminescence quantum yield: 0.13
In C1COCCO1
  photoluminescence quantum yield: 0.03
In CCCCCCC
  photoluminescence quantum yield: 0.1
In Cc1ccccc1
  photoluminescence quantum yield: 0.11

## COc1nc(Cl)nc(Nc2ccc3cc4ccccc4cc3c2)n1
In C1COCCO1
  photoluminescence quantum yield: 0.25
In CC#N
  photoluminescence quantum yield: 0.03
In CCCCOCCCC
  photoluminescence quantum yield: 0.25
In CCOC(C)=O
  photoluminescence quantum yield: 0.12

## C1=Cc2ccccc2C(=Cc2ccc(-c3cc(-c4ccc(C=C5c6ccccc6C=Cc6ccccc65)cc4)cc(-c4ccc(C=C5c6ccccc6C=Cc6ccccc65)cc4)c3)cc2)c2ccccc21
In C1CCOC1
  photoluminescence quantum yield: 0.0023

## COC(=O)c1ccc(C(=O)NC(C)(C)C)c2c1ccc1c3ccccc3c3ccccc3c12
In ClCCl
  photoluminescence quantum yield: 0.08

## O=S1(=O)c2ccccc2Oc2cc(N3c4ccccc4C4(c5ccccc53)c3ccccc3N(c3ccc5c(c3)Oc3ccccc3S5(=O)=O)c3ccccc34)ccc21
In O=P(c1ccccc1)(c1ccccc1)c1ccccc1Oc1ccccc1P(=O)(c1ccccc1)c1ccccc1
  photoluminescence quantum yield: 0.63

## F[Si-](F)(c1ccccc1)(c1c2ccccc2cc2ccccc12)c1c2ccccc2cc2ccccc12
In C1CCOC1
  photoluminescence quantum yield: 0.46

## CCOC(=O)/N=c1/oc2cc(OC)ccc2cc1C#N
In ClCCl
  photoluminescence quantum yield: 0.0065

## CN(C)c1ccc(C2=Nc3scc[n+]3[B-](F)(F)O2)cc1
In C1CCOC1
  photoluminescence quantum yield: 0.99
In CC#N
  photoluminescence quantum yield: 0.1
In Cc1ccccc1
  photoluminescence quantum yield: 0.99
In ClCCl
  photoluminescence quantum yield: 0.86

## c1ccc(-c2nc(-c3cccc4ccccc34)n3ccccc23)cc1
In ClCCl
  photoluminescence quantum yield: 0.125

## O=C1c2ccccc2C(=O)C1C1C(=O)c2c3ccccc3cc3cc4ccccc4c1c23 (stereo not drawn)
In C1CCOC1
  photoluminescence quantum yield: 0.294
In CC#N
  photoluminescence quantum yield: 0.139
In CCCCCC
  photoluminescence quantum yield: 0.339
In Cc1ccccc1
  photoluminescence quantum yield: 0.356
In ClCCl
  photoluminescence quantum yield: 0.247

## N#Cc1ccc(-c2cnc3cccc(-c4ccccc4)n23)cc1
In ClCCl
  photoluminescence quantum yield: 0.19

## Brc1ccc(/C=C/c2cnc3ccccc3n2)cc1
In ClCCl
  photoluminescence quantum yield: 0.02

## O=C(O)c1ccccc1-c1nc(-c2ccccc2)c2ccccn12
In CC#N
  photoluminescence quantum yield: 0.02

## C(=C\c1cc2ccccc2c2ccccc12)/c1cc2ccccc2c2ccccc12
In C1CCOC1
  photoluminescence quantum yield: 0.6

## F[Si](c1ccccc1)(c1c2ccccc2cc2ccccc12)c1c2ccccc2cc2ccccc12
In C1CCOC1
  photoluminescence quantum yield: 0.17

## Cc1c2ccc(=[N+]3CCCCC3)cc-2oc2cc(N3CCCCC3)ccc12
In ClCCl
  photoluminescence quantum yield: 0.91

## C(#Cc1c(C#Cc2ccccc2)c(C#Cc2ccccc2)c(C#Cc2ccccc2)c(C#Cc2ccccc2)c1C#Cc1ccccc1)c1ccccc1
In ClCCl
  photoluminescence quantum yield: 0.43

## O=C(c1ccc(N2c3ccccc3Sc3ccccc32)cc1)c1ccc2sc3ccccc3c2c1
In C1CCOC1
  photoluminescence quantum yield: 0.005
In c1ccc2c(c1)c1ccccc1n2-c1ccc(-c2ccc(-n3c4ccccc4c4ccccc43)cc2)cc1
  photoluminescence quantum yield: 0.768

## COCCOCCOCCOc1cc(C=O)c(OCCOCCOCCOC)cc1C=O
In CC(C)(C)O
  photoluminescence quantum yield: 0.12
In CC(C)CO
  photoluminescence quantum yield: 0.12
In CC(C)O
  photoluminescence quantum yield: 0.11
In CCCCO
  photoluminescence quantum yield: 0.13
In CCCO
  photoluminescence quantum yield: 0.16
In CCO
  photoluminescence quantum yield: 0.19
In CN(C)C=O
  photoluminescence quantum yield: 0.04
In CNC=O
  photoluminescence quantum yield: 0.08
In CO
  photoluminescence quantum yield: 0.23
In NC=O
  photoluminescence quantum yield: 0.31
In O
  photoluminescence quantum yield: 0.54

## CC/[NH+]=c1\cc2oc3cc(NCCC(=O)O)c4ccccc4c3nc-2cc1C
In CCO
  photoluminescence quantum yield: 0.44
In O
  photoluminescence quantum yield: 0.28

## COc1ccc2c(c1)-c1cc(OC)ccc1C2=O
In C1CCCCC1
  photoluminescence quantum yield: 0.0028
In CC#N
  photoluminescence quantum yield: 0.028
In CCO
  photoluminescence quantum yield: 0.002

## CC(C)[Si]1(C(C)C)c2cc(C#N)ccc2-c2ccc(N(c3ccccc3)c3ccccc3)cc21
In C1CCCCC1
  photoluminescence quantum yield: 0.64
In CC#N
  photoluminescence quantum yield: 0.67
In CCO
  photoluminescence quantum yield: 0.72
In CCOCC
  photoluminescence quantum yield: 0.74
In CS(C)=O
  photoluminescence quantum yield: 0.81
In ClCCl
  photoluminescence quantum yield: 0.8
In c1ccccc1
  photoluminescence quantum yield: 0.75

## CCCCn1c2ccc(C#N)cc2c2cc(C#N)ccc21
In ClCCl
  photoluminescence quantum yield: 0.1

## Nc1ccc2c(c1)-c1ccccc1C2=O
In C1CCCCC1
  photoluminescence quantum yield: 0.006
In CC#N
  photoluminescence quantum yield: 0.043
In CCO
  photoluminescence quantum yield: 0.0033
In c1ccccc1
  photoluminescence quantum yield: 0.13

## O=Cc1ccc(-c2ccc(C3=CCC(c4ccccc4)CC3)s2)s1 (stereo not drawn)
In CCO
  photoluminescence quantum yield: 0.29

## CC(=O)O[B-]1(OC(C)=O)OC(/C=C/c2cccc3ccccc23)=CC(/C=C/c2cccc3ccccc23)=[O+]1
In C1CCOC1
  photoluminescence quantum yield: 0.75
In CC#N
  photoluminescence quantum yield: 0.43
In CC(C)=O
  photoluminescence quantum yield: 0.58
In CS(C)=O
  photoluminescence quantum yield: 0.38
In Cc1ccccc1
  photoluminescence quantum yield: 0.84
In ClC(Cl)Cl
  photoluminescence quantum yield: 0.73
In ClCCl
  photoluminescence quantum yield: 0.64

## CC(=O)c1c(N[C@H](C(=O)O)C(C)C)c2ccc(N(C)C)cc2oc1=O
In ClCCl
  photoluminescence quantum yield: 0.004

## N#Cc1c(N2CCCCC2)cc(-c2ccc3c(c2)OCO3)c2c1-c1cccc3cccc-2c13
In O
  photoluminescence quantum yield: 0.3

## NCCCCCCCCCCCCN1C(=O)c2ccc3c4ccc5c6c(ccc(c7ccc(c2c37)C1=O)c64)C(=O)N(c1ccc(O)cc1)C5=O
In CN(C)C=O
  photoluminescence quantum yield: 0.91

## c1ccc2[nH]ccc2c1
In O
  photoluminescence quantum yield: 0.93

## N#CC(C#N)=Cc1ccc(-c2ccc(N(c3ccccc3)c3ccccc3)cc2)cc1
In ClC(Cl)Cl
  photoluminescence quantum yield: 0.19

## N#Cc1cccc(-c2pc3ccccc3s2)c1 (stereo not drawn)
In CC#N
  photoluminescence quantum yield: 0.015

## Cc1ccc(C)cc1
In C1CCCCC1
  photoluminescence quantum yield: 0.39

## C1CCN2CCCn3c2c(c2c3=NCCN=2)C1
In CCCCCC
  photoluminescence quantum yield: 0.36
In CS(C)=O
  photoluminescence quantum yield: 0.2

## c1cc2c3c(c1)OCCCCCCCCOc1cccc(c1-c1c4ccccc4c-3c3ccccc13)OCCCCCCCCO2
In C1CCCCC1
  photoluminescence quantum yield: 0.95

## CC1=CC(/C=C/c2ccccc2)=[N+]2C1=C(c1ccccc1)c1c(C)cc(/C=C/c3ccccc3)n1[B-]2(F)F
In Cc1ccccc1
  photoluminescence quantum yield: 0.59

## Cc1ccc2c(c1)nc1c(=O)n(C)c(=O)nc-1n2C
In CC#N
  photoluminescence quantum yield: 0.43

## NS(=O)(=O)c1ccc(N2N=C(c3ccc(O)cc3)CC2c2ccc([N+](=O)[O-])cc2)cc1 (stereo not drawn)
In C1CCOC1
  photoluminescence quantum yield: 0.01
In C1COCCO1
  photoluminescence quantum yield: 0.01
In CC#N
  photoluminescence quantum yield: 0.01
In CC(C)O
  photoluminescence quantum yield: 0.02
In CCO
  photoluminescence quantum yield: 0.01
In CCOC(C)=O
  photoluminescence quantum yield: 0.01
In CN(C)C=O
  photoluminescence quantum yield: 0.01
In CS(C)=O
  photoluminescence quantum yield: 0.01

## CCCCCCC(CCCCCC)N1C(=O)c2cccc3c(-c4ccc(N(C)C)cc4)ccc(c23)C1=O
In CCCCCC
  photoluminescence quantum yield: 0.7
In CCCCCCCCCCCCCC
  photoluminescence quantum yield: 0.73
In CCCCCCCCCCCO
  photoluminescence quantum yield: 0.14
In CCCCO
  photoluminescence quantum yield: 0.013
In CN(C)C=O
  photoluminescence quantum yield: 0.0037
In Cc1ccccc1
  photoluminescence quantum yield: 0.65
In ClC(Cl)Cl
  photoluminescence quantum yield: 0.64

## CCCCN1/C(=C\c2c(-c3ccc(N(C)C)cc3)c(=O)c2=O)C=Cc2ccccc21
In C1CCCCC1
  photoluminescence quantum yield: 0.0242
In Cc1ccccc1
  photoluminescence quantum yield: 0.0163
In ClCCl
  photoluminescence quantum yield: 0.001

## CCCC1=Cc2nc1ccc1[nH]c(cc1CCC)c1nc(c(NC(C)=O)cc3[nH]c2cc3CCC)C(CCC)=C1
In Cc1ccccc1
  photoluminescence quantum yield: 0.1

## Cc1cc(=O)oc2cc3cc(-c4cn(Cc5ccccc5)nn4)ccc3cc12
In CCO
  photoluminescence quantum yield: 0.02

## Oc1ccccc1C1=NC2c3cccc4cccc(c34)C2N1c1ccccc1 (stereo not drawn)
In Cc1ccccc1
  photoluminescence quantum yield: 0.009

## CC(C)(C)OC(=O)NC(C(=O)OCc1ccc2c3cccc4cccc(c5cccc1c52)c43)c1c[nH]c2ccccc12 (stereo not drawn)
In CCO
  photoluminescence quantum yield: 0.86

## CCN(CC)c1ccc2c(c1)OC1=[N+](c3ccc(I)cc3)[B-](F)(F)n3c(nc4ccccc43)C1=C2
In ClCCl
  photoluminescence quantum yield: 0.81

## CCOC(=O)c1cc(C(=O)NCc2ccccc2)c2ccc(N(C)C)cc2n1
In CCO
  photoluminescence quantum yield: 0.06

## CN(C)c1ccc(/C=C/c2cc(/C=C/c3ccc(N(C)C)cc3)nc(/C=C/c3ccc(C(F)(F)F)cc3)n2)cc1
In ClCCl
  photoluminescence quantum yield: 0.72

## CN(C)c1ccc(/C=C/c2nc3ccccc3o2)cc1
In C1CCCCC1
  photoluminescence quantum yield: 0.005
In CO
  photoluminescence quantum yield: 0.007

## CC1(C)CC(/C=C/c2ccc(-n3ccnc3)cc2)=CC(=C(C#N)C#N)C1
In CCO
  photoluminescence quantum yield: 0.0001

## CC(C)(C)c1ccc2c(c1)B1c3cc(C(C)(C)C)ccc3Oc3cc(-n4c5ccccc5c5c6c(c7ccccc7n6-c6ccccc6)c6c(c7ccccc7n6-c6ccccc6)c54)cc(c31)O2
In Cc1ccccc1
  photoluminescence quantum yield: 0.99

## Fc1cccc(C2=Cc3ccc4ccccc4[n+]3[B-](F)(F)O2)c1
In ClC(Cl)Cl
  photoluminescence quantum yield: 0.47

## [NH3+]C1(c2ccc3cc(O)ccc3c2)C2CC3CC(C2)CC1C3 (stereo not drawn)
In CC#N
  photoluminescence quantum yield: 0.3

## CN(C)c1ccc(C#Cc2cc(C#Cc3ccc(C(F)(F)F)cc3)c3ccc4c(C#Cc5ccc(C(F)(F)F)cc5)cc(C#Cc5ccc(C(F)(F)F)cc5)c5ccc2c3c54)cc1
In ClCCl
  photoluminescence quantum yield: 0.43

## CCCCCCN1C(=O)c2cccc3c(-c4ccc(-c5cc(-c6ccccc6)n(-c6ccccc6)n5)s4)ccc(c23)C1=O
In ClCCl
  photoluminescence quantum yield: 0.35

## CCCCN1c2ccccc2Sc2cc(/C=C/c3nc4nc5ccccc5nc4s3)ccc21
In C1CCCCC1
  photoluminescence quantum yield: 0.27
In C1CCOC1
  photoluminescence quantum yield: 0.01
In C1COCCO1
  photoluminescence quantum yield: 0.07
In CC#N
  photoluminescence quantum yield: 0
In CC(C)=O
  photoluminescence quantum yield: 0.001
In CC(C)O
  photoluminescence quantum yield: 0
In CCOC(C)=O
  photoluminescence quantum yield: 0.02
In CCOCC
  photoluminescence quantum yield: 0.05
In CO
  photoluminescence quantum yield: 0
In CS(C)=O
  photoluminescence quantum yield: 0
In Cc1ccccc1
  photoluminescence quantum yield: 0.08
In ClCCl
  photoluminescence quantum yield: 0.008

## c1ccc(-c2ccccc2)cc1
In C1CCCCC1
  photoluminescence quantum yield: 0.25
In C1COCCO1
  photoluminescence quantum yield: 0.18

## [C-]#[N+]c1ccc(-c2ccc(N)cc2)cc1
In C1CCCCC1
  photoluminescence quantum yield: 0.66
In C1CCOC1
  photoluminescence quantum yield: 0.78
In C1COCCO1
  photoluminescence quantum yield: 0.79
In CC#N
  photoluminescence quantum yield: 0.65
In CC(C)=O
  photoluminescence quantum yield: 0.52
In CCCCCC
  photoluminescence quantum yield: 0.76
In CCOC(C)=O
  photoluminescence quantum yield: 0.67
In CN(C)C=O
  photoluminescence quantum yield: 0.78
In CO
  photoluminescence quantum yield: 0.1
In CS(C)=O
  photoluminescence quantum yield: 0.77
In Cc1ccccc1
  photoluminescence quantum yield: 0.68
In ClC(Cl)Cl
  photoluminescence quantum yield: 0.2
In ClCCl
  photoluminescence quantum yield: 0.75
In O
  photoluminescence quantum yield: 0.0088
In c1ccncc1
  photoluminescence quantum yield: 0.06

## CCOC(=O)c1c(NC(C)(C)C)oc(-c2ccc(-c3ccccc3)cc2)c1C(=O)OCC
In CC#N
  photoluminescence quantum yield: 0.235
